This note sets out measurements from patent US9873709B2 (priority 2013, dated 2018).

Where a name gives a salt, the structure may show the parent alone.

The test relates to JAK1-dependent STAT6 phosphorylation downstream of IL-13 stimulation in TF-1 human erythroleukemia cells. As to the kind of experiment: cells. Particulars: TF-1, read-out: IL-13-pSTAT6 IC50.
With `O=C(c1ccc(Nc2nc3c(N4CCC(O)(c5ccc(Cl)cc5)CC4)cccn3n2)cc1)N1CCOC2(CCNCC2)C1` [Example 1-231, [4-[[8-[4-(4-chlorophenyl)-4-hydroxy-1-piperidyl]-[1,2,4]triazolo[1,5-a]pyridin-2-yl]amino]phenyl]-(1-oxa-4,9-diazaspiro[5.5]undecan-4-yl)methanone], the IC50 turned out to be 0.916 µM.
For `O=C(c1ccc(Nc2nc3c(N4CCC(O)(c5ccc(Cl)cc5)CC4)cccn3n2)cc1)N1CCCC12CCCNC2` (stereo not drawn) [Example 1-233, [4-[[8-[4-(4-chlorophenyl)-4-hydroxy-1-piperidyl]-[1,2,4]triazolo[1,5-a]pyridin-2-yl]amino]phenyl]-(1,9-diazaspiro[4.5]decan-1-yl)methanone] the value was 0.165 µM; for `O=C(c1ccc(Nc2nc3c(N4CCC(O)(c5ccc(Cl)cc5)CC4)cccn3n2)cc1)N1C[C@@H]2CCN[C@@H]2C1` [Example 1-234], 0.0361 µM; for `O=C(c1ccc(Nc2nc3c(N4CCC(O)(c5ccc(Cl)cc5)CC4)cccn3n2)cc1)N1C[C@H]2CNC[C@H]2C1` [Example 1-235, [(3aR,6aS)-2,3,3a,4,6,6a-hexahydro-1H-pyrrolo[3,4-c]pyrrol-5-yl]-[4-[[8-[4-(4-chlorophenyl)-4-hydroxy-1-piperidyl]-[1,2,4]triazolo[1,5-a]pyridin-2-yl]amino]phenyl] methanone], 0.31 µM.
With `O=C(N[C@H]1[C@@H]2CNC[C@@H]21)c1ccc(Nc2nc3c(N4CCC(O)(c5ccc(Cl)cc5)CC4)cccn3n2)cc1` [Example 1-238, N-[(1R,5S)-3-azabicyclo[3.1.0]hexan-6-yl]-4-[[8-[4-(4-chlorophenyl)-4-hydroxy-1-piperidyl]-[1,2,4]triazolo[1,5-a]pyridin-2-yl]amino]benzamide], the half-maximal inhibitory concentration (IC50) stood at 0.18 µM.
For `O=C(c1ccc(Nc2nc3c(N4CCC(O)(c5ccc(Cl)cc5)CC4)cccn3n2)cc1)N1CC[C@H]2CNC[C@H]21` [Example 1-241, [(3aS,6aS)-3,3a,4,5,6,6a-hexahydro-2H-pyrrolo[2,3-c]pyrrol-1-yl]-[4-[[8-[4-(4-chlorophenyl)-4-hydroxy-1-piperidyl]-[1,2,4]triazolo[1,5-a]pyridin-2-yl]amino]phenyl] methanone] the value was 0.115 µM; for `CN1CCC(N(C)C(=O)c2ccc(Nc3nc4c(N5CCC(C)(c6ccc(Cl)cc6)CC5)cccn4n3)cc2)CC1` [Example 1-262, 4-[[8-[4-(4-chlorophenyl)-4-methyl-1-piperidyl]-[1,2,4]triazolo[1,5-a]pyridin-2-yl]amino]-N-methyl-N-(1-methyl-4-piperidyl)benzamide], 0.12 µM.
Consider `CN1CCC(N(C)C(=O)c2ccc(Nc3nc4c(N5CCC(CC#N)(c6ccc(Cl)c(F)c6)CC5)cccn4n3)cc2)CC1` [Example 1-263, 4-[[8-[4-(4-chloro-3-fluoro-phenyl)-4-(cyanomethyl)-1-piperidyl]-[1,2,4]triazolo[1,5-a]pyridin-2-yl]amino]-N-methyl-N-(1-methyl-4-piperidyl)benzamide], for which the IC50 came to 0.0182 µM.
Consider `CNC(=O)CC1(c2ccc(Cl)cc2)CCN(c2cccn3nc(Nc4ccc(C(=O)N(C)C5CCN(C)CC5)cc4)nc23)CC1` [Example 1-299, 4-[[8-[4-(4-chlorophenyl)-4-[2-(methylamino)-2-oxo-ethyl]-1-piperidyl]-[1,2,4]triazolo[1,5-a]pyridin-2-yl]amino]-N-methyl-N-(1-methyl-4-piperidyl)benzamide], for which the IC50 amounted to 0.0557 µM.
Turning to `CN1CCC(N(C)C(=O)c2ccc(Nc3nc4c(N5CCC(CC(=O)O)(c6ccc(Cl)cc6)CC5)cccn4n3)cc2)CC1` [Example 1-301, 2-[4-(4-chlorophenyl)-1-[2-[4-[methyl-(1-methyl-4-piperidyl)carbamoyl]anilino]-[1,2,4]triazolo[1,5-a]pyridin-8-yl]-4-piperidyl]acetic acid], the IC50 came out at 0.179 µM.
Consider `CCOC(=O)N1CC=C(c2cccn3nc(Nc4ccc(C(=O)N(C)C5CCN(C)CC5)cc4)nc23)CC1` [Example 2-1, ethyl 4-[2-[4-[methyl-(1-methyl-4-piperidyl)carbamoyl]anilino]-[1,2,4]triazolo[1,5-a]pyridin-8-yl]-3,6-dihydro-2H-pyridine-1-carboxylate], for which the half-maximal inhibitory concentration (IC50) is 0.0237 µM.
For `CN1CCC(N(C)C(=O)c2ccc(Nc3nc4c(C5=CCN(C(=O)OC6CC6)CC5)cccn4n3)cc2)CC1` [Example 2-2, cyclopropyl 4-[2-[4-[methyl-(1-methyl-4-piperidyl)carbamoyl]anilino]-[1,2,4]triazolo[1,5-a]pyridin-8-yl]-3,6-dihydro-2H-pyridine-1-carboxylate] the value was 0.034 µM.
Take `CN1CCC(N(C)C(=O)c2ccc(Nc3nc4c(C5=CCN(C(=O)CC(C)(C)O)CC5)cccn4n3)cc2)CC1` [Example 2-3, 4-[[8-[1-(3-hydroxy-3-methyl-butanoyl)-3,6-dihydro-2H-pyridin-4-yl]-[1,2,4]triazolo[1,5-a]pyridin-2-yl]amino]-N-methyl-N-(1-methyl-4-piperidyl)benzamide]: the IC50 was determined as 0.163 µM.
For `CN1CCC(N(C)C(=O)c2ccc(Nc3nc4c(C5=CCN(C(=O)N6CC(C#N)C6)CC5)cccn4n3)cc2)CC1` [Example 2-5, 4-[[8-[1-(3-cyanoazetidine-1-carbonyl)-3,6-dihydro-2H-pyridin-4-yl]-[1,2,4]triazolo[1,5-a]pyridin-2-yl]amino]-N-methyl-N-(1-methyl-4-piperidyl)benzamide] the value was 1.09 µM; for `CN1CCC(N(C)C(=O)c2ccc(Nc3nc4c(C5=CCN(C(=O)OCC#N)CC5)cccn4n3)cc2)CC1` [Example 2-7, cyanomethyl 4-[2-[4-[methyl-(1-methyl-4-piperidyl)carbamoyl]anilino]-[1,2,4]triazolo[1,5-a]pyridin-8-yl]-3,6-dihydro-2H-pyridine-1-carboxylate], 0.0429 µM.
For `CN1CCC(N(C)C(=O)c2ccc(Nc3nc4c(C5=CCN(Cc6ccccc6)CC5)cccn4n3)cc2)CC1` [Example 2-8, 4-[[8-(1-benzyl-3,6-dihydro-2H-pyridin-4-yl)-[1,2,4]triazolo[1,5-a]pyridin-2-yl]amino]-N-methyl-N-(1-methyl-4-piperidyl)benzamide; hydrochloride] the value was 0.849 µM; for `CN1CCC(N(C)C(=O)c2ccc(Nc3nc4c(C5=CCN(C(=O)CCO)CC5)cccn4n3)cc2)CC1` [Example 2-9, 4-[[8-[1-(3-hydroxypropanoyl)-3,6-dihydro-2H-pyridin-4-yl]-[1,2,4]triazolo[1,5-a]pyridin-2-yl]amino]-N-methyl-N-(1-methyl-4-piperidyl)benzamide], 0.62 µM.
The result for `CCOC(=O)N1CC=C(c2cccn3nc(Nc4ccc(C(=O)NCC(C)(C)N5CCOCC5)cc4)nc23)CC1` [Example 2-11, ethyl 4-[2-[4-[(2-methyl-2-morpholino-propyl)carbamoyl]anilino]-[1,2,4]triazolo[1,5-a]pyridin-8-yl]-3,6-dihydro-2H-pyridine-1-carboxylate] reads 0.0067 µM; that for `CCOC(=O)N1CC=C(c2cccn3nc(Nc4ccc(C(=O)NCCC5CCNCC5)cc4)nc23)CC1` [Example 2-13, ethyl 4-[2-[4-[2-(4-piperidyl)ethylcarbamoyl]anilino]-[1,2,4]triazolo[1,5-a]pyridin-8-yl]-3,6-dihydro-2H-pyridine-1-carboxylate], 0.338 µM.
With `CCOC(=O)N1CC=C(c2cccn3nc(Nc4ccc(C(=O)N5CCCC5c5ccncc5)cc4)nc23)CC1` (stereo not drawn) [Example 2-15, ethyl 4-[2-[4-[2-(4-pyridyl)pyrrolidine-1-carbonyl]anilino]-[1,2,4]triazolo[1,5-a]pyridin-8-yl]-3,6-dihydro-2H-pyridine-1-carboxylate], the IC50 was determined as 0.0171 µM.
The result for `CCOC(=O)N1CC=C(c2cccn3nc(Nc4ccc(C(=O)N5CCN(c6cccnc6)CC5)cc4)nc23)CC1` [Example 2-19, ethyl 4-[2-[4-[4-(3-pyridyl)piperazine-1-carbonyl]anilino]-[1,2,4]triazolo[1,5-a]pyridin-8-yl]-3,6-dihydro-2H-pyridine-1-carboxylate] reads 0.0557 µM.
For `CCOC(=O)N1CC=C(c2cccn3nc(Nc4ccc(C(=O)N5CCN(C)CC(CO)C5)cc4)nc23)CC1` (stereo not drawn) [Example 2-20, ethyl 4-[2-[4-[6-(hydroxymethyl)-4-methyl-1,4-diazepane-1-carbonyl]anilino]-[1,2,4]triazolo[1,5-a]pyridin-8-yl]-3,6-dihydro-2H-pyridine-1-carboxylate], the IC50 turned out to be 0.256 µM.
The result for `CCOC(=O)N1CC=C(c2cccn3nc(Nc4ccc(C(=O)N5CCNCC5C)cc4)nc23)CC1` (stereo not drawn) [Example 2-24, ethyl 4-[2-[4-(2-methylpiperazine-1-carbonyl)anilino]-[1,2,4]triazolo[1,5-a]pyridin-8-yl]-3,6-dihydro-2H-pyridine-1-carboxylate] reads 0.0216 µM; that for `CCOC(=O)N1CC=C(c2cccn3nc(Nc4ccc(C(=O)NC5CC6(CCNCC6)C5)cc4)nc23)CC1` [Example 2-27, ethyl 4-[2-[4-(7-azaspiro[3.5]nonan-2-ylcarbamoyl)anilino]-[1,2,4]triazolo[1,5-a]pyridin-8-yl]-3,6-dihydro-2H-pyridine-1-carboxylate], 0.257 µM; that for `O=C(CCC(F)(F)F)N1CC=C(c2cccn3nc(Nc4ccc(C(=O)N5CCC6(CCNC6)C5)cc4)nc23)CC1` (stereo not drawn) [Example 2-28, 1-[4-[2-[4-(2,7-diazaspiro[4.4]nonane-2-carbonyl)anilino]-[1,2,4]triazolo[1,5-a]pyridin-8-yl]-3,6-dihydro-2H-pyridin-1-yl]-4,4,4-trifluoro-butan-1-one], 0.207 µM.
Regarding `O=C(CCC(F)(F)F)N1CC=C(c2cccn3nc(Nc4ccc(C(=O)N5CCC6(CCNCC6)CC5)cc4)nc23)CC1` [Example 2-29, 1-[4-[2-[4-(3,9-diazaspiro[5.5]undecane-3-carbonyl)anilino]-[1,2,4]triazolo[1,5-a]pyridin-8-yl]-3,6-dihydro-2H-pyridin-1-yl]-4,4,4-trifluoro-butan-1-one], the IC50 turned out to be 0.0803 µM.
The result for `O=C(NCC1CNCCO1)c1ccc(Nc2nc3c(C4=CCN(C(=O)CCC(F)(F)F)CC4)cccn3n2)cc1` (stereo not drawn) [Example 2-30, N-(morpholin-2-ylmethyl)-4-[[8-[1-(4,4,4-trifluorobutanoyl)-3,6-dihydro-2H-pyridin-4-yl]-[1,2,4]triazolo[1,5-a]pyridin-2-yl]amino]benzamide] reads 0.0403 µM.

One may read the IC50 as the concentration needed to halve the response being measured.
